# Results as given in US5541183A, “Ginkgolide derivatives” (priority 1993, dated 1996).
# System: PAF-induced rabbit platelet aggregation
# Assay: PAF-induced rabbit platelet aggregation
# Format: cell-based, rabbit (New Zealand white)
# Details: Oryctolagus cuniculus, rabbit PRP, PAF 5×10^-9 M, read-out: IC50, inhibition of PAF-induced rabbit platelet aggregation
# Experimental: Pharmacology Example 1: PAF-induced rabbit platelet aggregation
# Blood was collected from the ear artery of a male New Zealand white rabbit and mixed with 3.8% sodium citrate in a 9:1 volume ratio. Platelet rich plasma (PRP) was obtained by centrifugation of the blood at 150 g for 10 min at room temperature. The number of platelets was adjusted to 3×10^8 platelets/ml with platelet poor plasma. Platelet aggregation was monitored by continuous recording of light transmission in a dual-channel aggregometer (Chrono-Log 560-VS) coupled with a two channel recorder (Chrono-Log 707). Stirred PRP was treated with various concentrations of the test compounds or vehicle (0.5% DMSO) for 2 min and then PAF(5×10^-9 M) was added to induce platelet aggregation.
# Inhibition values were calculated by comparing the extent of aggregation obtained in the presence of the vehicle alone (0.5% DMSO) and in the presence of a test compound. Log concentration-response curves were generated and the IC50 values were determined by regression analysis.
# Table 1 lists results from this assay for inhibition of PAF-induced rabbit platelet aggregation for illustrative examples of the compounds of this invention.
row,Structure (SMILES),IC50 [nM]
1,"COc1cc(C(=O)OC2C(=O)OC3OC45C(=O)OC6CC(C(C)(C)C)C32C64C(O)C2OC(=O)C(C)C25O)cc(OC)c1OC (stereo not drawn) [Example 80, 10-(3',4'.5'-trimethoxybenzoyloxy)-Ginkgolide B]",114
2,"CC1C(=O)OC2C(O)C34C5CC(C(C)(C)C)C36C(OC(=O)C6OCc3ccncc3)OC4(C(=O)O5)C12O (stereo not drawn) [Example 109, 10-(4-pyridinyl)-methoxy-Ginkgolide B]",122
3,"CC1C(=O)OC2C(O)C34C5CC(C(C)(C)C)C36C(OC(=O)C6OCc3cc(NO)ccn3)OC4(C(=O)O5)C12O (stereo not drawn) [Example 113, 10-(2-(4-hydroxyaminopyridinyl)-methoxy)-Ginkgolide B]",111
4,"COc1cccc(COC2C(=O)OC3OC45C(=O)OC6CC(C(C)(C)C)C32C64C(O)C2OC(=O)C(C)C25O)c1 (stereo not drawn) [Example 91, 10-(3'-methoxybenzyloxy)-Ginkgolide B]",93.1
5,"CC1C(=O)OC2C(O)C34C5CC(C(C)(C)C)C36C(OC(=O)C6OCc3cc([N+](=O)[O-])ccn3)OC4(C(=O)O5)C12O (stereo not drawn) [Example 111, 10-(4-nitro-2-myridinyl)-methoxy Ginkgolide B]",107
6,"CC1C(=O)OC2C(O)C34C5CC(C(C)(C)C)C36C(OC(=O)C6OCCc3ccccc3)OC4(C(=O)O5)C12O (stereo not drawn) [Example 79, 10-(2'-phenylethoxy)-Ginkgolide B]",117

# The next lines start with the values.
row,IC50 [nM],Structure (SMILES)
1,65.1,COc1cc(COC2C(=O)OC3OC45C(=O)OC6CC(C(C)(C)C)C32C64C(O)C2OC(=O)C(C)C25O)cc(OC)c1O (stereo not drawn) [Example 32]
2,57.1,CC1C(=O)OC2C(O)C34C5CC(C(C)(C)C)C36C(OC(=O)C6OCc3ccc(O)cc3)OC4(C(=O)O5)C12O (stereo not drawn) [Example 25]
3,68.8,"CC1C(=O)OC2C(O)C34C5CC(C(C)(C)C)C36C(OC(=O)C6OCc3ccccc3)OC4(C(=O)O5)C12O (stereo not drawn) [Example 1, 10-benzyloxy-Ginkgolide B]"
4,32.5,"Cc1cnc(COC2C(=O)OC3OC45C(=O)OC6CC(C(C)(C)C)C32C64C(O)C2OC(=O)C(C)C25O)c(C)c1NC(=O)c1ccccc1 (stereo not drawn) [Example 105, 10-(4-benzoylamino-3,5-dimethyl-2-pyridinyl)-methoxy-Ginkgolide B]"
5,32.1,"CC1C(=O)OC2C(O)C34C5CC(C(C)(C)C)C36C(OC(=O)C6OCc3ccc(F)cc3)OC4(C(=O)O5)C12O (stereo not drawn) [Example 85, 10-(4'-fluorobenzyloxy)-Ginkgolide B]"
6,62.1,"CC1C(=O)OC2C(OC(=O)c3ccccc3)C34C5CC(C(C)(C)C)C36C(OC(=O)C6O)OC4(C(=O)O5)C12O (stereo not drawn) [Example 89, 1-benzoyloxy-Ginkgolide B]"

# Same assay, conditions: Oryctolagus cuniculus, read-out: IC50, inhibition of PAF-induced rabbit platelet aggregation
row,Structure (SMILES),IC50 [nM]
1,"CC1C(=O)OC2C(O)C34C5CC(C(C)(C)C)C36C(OC(=O)C6OCc3ccc(F)cc3F)OC4(C(=O)O5)C12O (stereo not drawn) [Example 86, 10-(2',4'-difluorobenzyloxy)-Ginkgolide B]",50.1
2,CC1C(=O)OC2C(O)C34C5CC(C(C)(C)C)C36C(OC(=O)C6OCc3ccc(I)cc3)OC4(C(=O)O5)C12O (stereo not drawn) [Example 5],50.1
3,CC1C(=O)OC2C(O)C34C5CC(C(C)(C)C)C36C(OC(=O)C6OCc3ccc(O)c(O)c3)OC4(C(=O)O5)C12O (stereo not drawn) [Example 30],121
